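Dose response: 5 concentrations. Exposure: 48 h. Format: 96-well plates. Endpoint: linear interpolation; highest concentration if not reached. GI50: concentration for 50% inhibition of growth. TGI is the concentration that stops growth completely.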 Some results are limits rather than exact numbers.

Among the test systems are HL-60(TB) leukemia; CAKI-1 renal; HT29 colon; NCI-H226 lung; UACC-62 melanoma; K-562 leukemia; NCI-H522 lung; EKVX NSCLC; NCI-H23 lung; U251 CNS.
What all share (assay): NCI tumour cell line growth inhibition, 48 h

`CCCCCCCCCCCCCCCCCCOc1ccccc1COP(=O)(O)OOCC[N+](C)(C)C`: the GI50 in the assay with HL-60(TB) leukemia is 0.846 µM; in the assay with CAKI-1 renal it was 1.2 µM; with HT29 colon, 1.21 µM; with NCI-H226 lung it was 1.16 µM; with UACC-62 melanoma it was 0.901 µM; in the assay with K-562 leukemia, 1.23 µM. Also, the GI50 in the assay with NCI-H522 lung is 1.73 µM; in the assay with EKVX NSCLC it was 1.77 µM; with NCI-H23 lung, 0.804 µM. For the same compound, the TGI in the assay on HL-60(TB) leukemia is 2.19 µM; with CAKI-1 renal, 4.14 µM; in the assay on HT29 colon, 5.38 µM; in the assay on NCI-H226 lung, 5.54 µM; with UACC-62 melanoma, 2.82 µM; in the assay with K-562 leukemia, 50 µM. For the same compound, the figures for the TGI with NCI-H522 lung, with EKVX NSCLC and in the assay with NCI-H23 lung were 13.1 µM, 10.3 µM and 4.27 µM, respectively.
Turning to `O=C1OC(c2ccccc2Br)=N/C1=C/c1ccccc1`, the TGI in the assay with HL-60(TB) leukemia is greater than 100 µM; in the assay on CAKI-1 renal, greater than 100 µM; in the assay on HT29 colon, greater than 100 µM; in the assay with NCI-H226 lung it was 77.9 µM; in the assay on UACC-62 melanoma, greater than 100 µM; in the assay on K-562 leukemia, greater than 100 µM. Moreover, the TGI is 69.7 µM with U251 CNS, 72.2 µM in the assay with NCI-H522 lung, greater than 100 µM in the assay on EKVX NSCLC and greater than 100 µM in the assay with NCI-H23 lung.
Turning to `COC(=O)Cc1c(C2C(CC(=O)OC)c3ccccc3N2C2OC(CO)C(O)C(O)C2O)[nH]c2ccccc12` (stereo not drawn), the TGI in the assay with CAKI-1 renal, in the assay with HT29 colon, in the assay on UACC-62 melanoma, in the assay with U251 CNS, in the assay with NCI-H522 lung and in the assay with EKVX NSCLC was greater than 100 µM each time. The same compound displayed a TGI in the assay on NCI-H23 lung greater than 100 µM.
Regarding `NC(CSCSCC(N)C(=O)O)C(=O)O` (stereo not drawn), the TGI in the assay with HL-60(TB) leukemia, in the assay with CAKI-1 renal, in the assay on HT29 colon, in the assay with NCI-H226 lung, in the assay with UACC-62 melanoma and with K-562 leukemia was greater than 225 µM in each case. Further, the TGI in the assay on U251 CNS, with NCI-H522 lung, with EKVX NSCLC and in the assay on NCI-H23 lung was greater than 225 µM throughout.
Regarding `CC(C)(C)CI`, the TGI with HL-60(TB) leukemia was 50.4 µM; in the assay on HT29 colon, greater than 10 µM; with UACC-62 melanoma it was greater than 100 µM; with K-562 leukemia it was 58.4 µM; with U251 CNS it was 66.4 µM; with NCI-H522 lung it was 45.2 µM. The TGI in the assay with EKVX NSCLC and in the assay on NCI-H23 lung was greater than 100 µM throughout.
With `O=c1oc2ccccc2n1P(=O)(Oc1ccc(Cl)cc1)n1c(=O)oc2ccccc21`, the TGI in the assay on HL-60(TB) leukemia, with CAKI-1 renal, with HT29 colon, in the assay with NCI-H226 lung, with UACC-62 melanoma and in the assay on K-562 leukemia was greater than 100 µM in each case. Moreover, the TGI in the assay on U251 CNS, in the assay with NCI-H522 lung, in the assay on EKVX NSCLC and in the assay with NCI-H23 lung was greater than 100 µM in each case.
For `C#CCNC(=O)CC[C@@H](C)[C@H]1CC[C@H]2[C@@H]3CC[C@@H]4CC(=O)CC[C@]4(C)[C@H]3CC[C@]12C`, the GI50 in the assay with HL-60(TB) leukemia was 3.47 µM; with CAKI-1 renal, 12.8 µM; in the assay on HT29 colon, 12.7 µM; in the assay with NCI-H226 lung, 14.8 µM; with UACC-62 melanoma, 9.02 µM; in the assay on K-562 leukemia, 5.19 µM. In addition, the GI50 in the assay with U251 CNS was 15.8 µM; in the assay on NCI-H522 lung it was 3.69 µM; in the assay on EKVX NSCLC, 20.1 µM; in the assay with NCI-H23 lung, 19.6 µM. The TGI was found to be 18 µM in the assay on HL-60(TB) leukemia; 29.2 µM in the assay on CAKI-1 renal; 34.5 µM in the assay on HT29 colon; 36.2 µM in the assay on NCI-H226 lung; 28.6 µM in the assay with UACC-62 melanoma; 44.3 µM with K-562 leukemia. In addition, the TGI with U251 CNS is 39.4 µM; with NCI-H522 lung it was 16.6 µM; in the assay on EKVX NSCLC, 57.9 µM; with NCI-H23 lung, 75.7 µM.
As to `CC1OC(CO)(n2cnc3c(N)ncnc32)C(O)C1O` (stereo not drawn), the TGI in the assay with HL-60(TB) leukemia, with CAKI-1 renal, in the assay on HT29 colon, with NCI-H226 lung, in the assay with UACC-62 melanoma and in the assay with K-562 leukemia was greater than 100 µM throughout. Moreover, the TGI in the assay with U251 CNS, in the assay with NCI-H522 lung, in the assay on EKVX NSCLC and with NCI-H23 lung was greater than 100 µM in each case.

For the origin of these results see PubChem BioAssay (NCI).
